Measurements reported in patent publication US20080039629A1, “Benzothniazole compositions and their use as ubiquition ligation inhibitors” (RIGEL PHARMACEUTICALS, INC., priority 2003, published 2008).

Target: T1, E1 and His-E2 Ubch10 (Homo sapiens, UniProt P22314)
T1 construct: host or cells: E. coli (His-Ubch10); Sf9 insect cells (E1)
T1 sequence (P22314 1-1058): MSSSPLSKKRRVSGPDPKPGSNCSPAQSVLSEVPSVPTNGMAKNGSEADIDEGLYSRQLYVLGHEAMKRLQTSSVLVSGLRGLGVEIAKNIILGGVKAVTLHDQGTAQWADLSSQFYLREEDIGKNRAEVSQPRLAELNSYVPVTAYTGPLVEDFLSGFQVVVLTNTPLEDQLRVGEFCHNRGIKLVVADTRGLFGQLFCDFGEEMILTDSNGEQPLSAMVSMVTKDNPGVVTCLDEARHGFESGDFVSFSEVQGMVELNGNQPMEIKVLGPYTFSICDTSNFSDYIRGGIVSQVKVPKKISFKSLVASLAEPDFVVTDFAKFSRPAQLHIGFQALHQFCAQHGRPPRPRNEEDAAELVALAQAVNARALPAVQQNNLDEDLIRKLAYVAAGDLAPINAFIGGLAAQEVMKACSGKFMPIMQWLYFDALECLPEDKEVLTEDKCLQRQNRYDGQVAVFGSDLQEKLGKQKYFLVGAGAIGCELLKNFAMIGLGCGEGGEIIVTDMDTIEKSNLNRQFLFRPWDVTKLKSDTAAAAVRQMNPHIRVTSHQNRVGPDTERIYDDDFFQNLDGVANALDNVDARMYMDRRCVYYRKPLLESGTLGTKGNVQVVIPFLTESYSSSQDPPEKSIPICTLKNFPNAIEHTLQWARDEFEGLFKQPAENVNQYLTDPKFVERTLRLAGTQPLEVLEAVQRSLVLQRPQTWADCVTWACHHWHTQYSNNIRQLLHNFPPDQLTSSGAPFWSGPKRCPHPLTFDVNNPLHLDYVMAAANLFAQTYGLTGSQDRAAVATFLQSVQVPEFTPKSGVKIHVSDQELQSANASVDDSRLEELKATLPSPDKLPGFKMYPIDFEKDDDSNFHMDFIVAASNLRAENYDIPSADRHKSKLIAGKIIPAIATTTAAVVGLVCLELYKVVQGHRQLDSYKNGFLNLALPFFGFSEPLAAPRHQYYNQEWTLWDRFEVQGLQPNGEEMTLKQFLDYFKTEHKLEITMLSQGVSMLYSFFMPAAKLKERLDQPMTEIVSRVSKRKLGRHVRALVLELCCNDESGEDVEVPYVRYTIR
Experiment: E1 to E2 transfer assay, His-E2 Ubch10, 1.0 μM ATP (low ATP)
Type: biochemical
Details: Table 5, ATP inhibition properties; inhibition measured using IC50 values
Text: Biological assays for determining the transfer of ubiquitin from the E1 activating agent to the E2 conjugating agent are described in U.S. patent application Ser. Nos. 09/542,497 and 09/826,312 as well as in the PCT Application WO 01/75145, all of which are incorporated by reference in their entirety. The following assay example illustrates one way by which the ubiquitin ligase inhibitory activity of the compounds of the invention can be assayed. This assay example is not meant to limit in any way the use of the compounds of the invention as ubiquitin ligase inhibitors.
The attachment of a ubiquitin moiety to the E2 conjugating agent was assayed using Flag-ubiquitin that was purified from E. coli, E2 Ubch10 that was purified as a His-Ubch10 from E. coli, and E1 that was purified from Sf9 insect cells (Affiniti Research Products, Exeter, U.K.). The wells of a Nickel-substrate 96-well plate (Pierce Chemical) were blocked with 100 μl of 1% casein/phosphate buffered saline (PBS) for 1 hour at room temperature. The blocked Nickel-substrate plate was then washed three times with 200 μl of PBST (0.1% Tween-20 in PBS). Subsequently, Flag-ubiquitin reaction solution was added to each well so that the final concentration was 62.5 mM Tris pH 7.5, […], 0.75 mM DTT, 1.0 μM ATP (low ATP), and 100 ng Flag-ubiquitin. The final reaction solution volume was fixed to 80 μl with Millipore-filtered water. To this was added the following: a ubiquitin agent inhibitor in 10 μl of DMSO, 10 μl of E1 and His-E2 Ubch10 in 20 mM Tris buffer, pH 7.5, and 5% glycerol so that there was 10 ng/well of E1 and 20 ng/well of His-E2 Ubch10. The reaction was then allowed to proceed at room temperature for 1 hour.
After 1 hour, the wells were washed three times with 200 μl of PBST and the amount of E2-ubiquitin complex was measured. For measuring the amount of the E2-ubiquitin complex, 100 μl of Mouse anti-flag diluted 1:10,000 (Sigma Aldrich Fluka Chemicals, St. Louis, Mo.) and anti-mouse HRP diluted 1:15,000 (Jackson Immunoresearch labs, West Grove, Pa.) in PBST were added to each well and allowed to incubate at room temperature for another hour. The wells were then washed three times with 200 μl of PBST and 100 μl of luminol substrate (⅕ dilution) was added. The luminescence of each well was then measured using a […] to calculate the amount of E2-ubiquitin complex. This procedure was repeated using His-E2 Ubch5C instead of His-E2 Ubch10.
The table below illustrates the inhibitory properties of the pharmaceutical compostions of the invention comprising the compounds listed in the table using the assays described above. Inhibition was measured using IC50 values.

Row | SMILES | UBC10
1 | COc1ccc2nc(NC(=O)C3CCNCC3)sc2c1 [Compound 44, N-(6-methoxybenzo[d]thiazol-2-yl)piperidine-4-carboxamide] | −− (−− indicates marginal or no inhibition detected with this assay)
2 | CCCC1CCC(C(=O)Nc2nc3ccc(OC)cc3s2)CC1 (centres unmarked) [Compound 45, N-(6-methoxybenzo[d]thiazol-2-yl)-4-propylcyclohexanecarboxamide] | ++ (++ indicates inhibition at 50 μM or or less)
3 | COc1ccc2nc(NC(=O)C3CCC3)sc2c1 [Compound 46, N-(6-methoxybenzo[d]thiazol-2-yl)cyclobutanecarboxamide] | ++ (++ indicates inhibition at 50 μM or or less)
4 | COc1ccc2nc(NC(=O)C(C)C)sc2c1 [Compound 47, N-(6-methoxybenzo[d]thiazol-2-yl)isobutyramide] | −− (−− indicates marginal or no inhibition detected with this assay)
5 | COc1ccc2nc(NC(=O)C(C)(C)C)sc2c1 [Compound 48, N-(6-methoxybenzo[d]thiazol-2-yl)pivalamide] | ++ (++ indicates inhibition at 50 μM or or less)
6 | COc1ccc2nc(NC(=O)c3cccs3)sc2c1 [Compound 49, N-(6-methoxybenzo[d]thiazol-2-yl)thiophene-2-carboxamide] | ++ (++ indicates inhibition at 50 μM or or less)
7 | COc1ccc2nc(NC(=O)c3ccc([N+](=O)[O-])s3)sc2c1 [Compound 50, N-(6-methoxybenzo[d]thiazol-2-yl)-5-nitrothiophene-2-carboxamide] | −− (−− indicates marginal or no inhibition detected with this assay)
8 | COc1ccc2nc(N3C(=O)c4ccccc4C3=O)sc2c1 [Compound 51, 2-(6-methoxybenzo[d]thiazol-2-yl)isoindoline-1,3-dione] | ++ (++ indicates inhibition at 50 μM or or less)
9 | COc1ccc2nc(NC(=O)c3ccncc3)sc2c1 [Compound 52, N-(6-methoxybenzo[d]thiazol-2-yl)isonicotinamide] | −− (−− indicates marginal or no inhibition detected with this assay)
10 | COc1ccc2nc(NC(=O)c3cccnc3)sc2c1 [Compound 53, N-(6-methoxybenzo[d]thiazol-2-yl)nicotinamide] | ++ (++ indicates inhibition at 50 μM or or less)
11 | COc1ccc2nc(NC(=O)c3cccc([N+](=O)[O-])c3)sc2c1 [Compound 54, N-(6-methoxybenzo[d]thiazol-2-yl)-3-nitrobenzamide] | −− (−− indicates marginal or no inhibition detected with this assay)
12 | COc1ccc2nc(NC(=O)c3cccc4ccccc34)sc2c1 [Compound 55, N-(6-methoxybenzo[d]thiazol-2-yl)-1-naphthamide] | −− (−− indicates marginal or no inhibition detected with this assay)
13 | COc1ccc2nc(NC(=O)c3cccc(C)c3)sc2c1 [Compound 56, N-(6-methoxybenzo[d]thiazol-2-yl)-3-methylbenzamide] | ++ (++ indicates inhibition at 50 μM or or less)
14 | COc1ccc2nc(NC(=O)c3ccc(F)cc3)sc2c1 [Compound 57, 4-fluoro-N-(6-methoxybenzo[d]thiazol-2-yl)benzamide] | ++ (++ indicates inhibition at 50 μM or or less)
15 | COc1ccc2nc(NC(=O)c3cccc(F)c3)sc2c1 [Compound 58, 3-fluoro-N-(6-methoxybenzo[d]thiazol-2-yl)benzamide] | ++ (++ indicates inhibition at 50 μM or or less)
16 | COc1ccc2nc(NC(=O)c3ccccc3F)sc2c1 [Compound 59, 2-fluoro-N-(6-methoxybenzo[d]thiazol-2-yl)benzamide] | ++ (++ indicates inhibition at 50 μM or or less)
17 | COc1cccc(C(=O)Nc2nc3ccc(OC)cc3s2)c1 [Compound 60, 3-methoxy-N-(6-methoxybenzo[d]thiazol-2-yl)benzamide] | ++ (++ indicates inhibition at 50 μM or or less)
18 | COc1ccc2nc(NC(=O)c3ccccc3OC)sc2c1 [Compound 61, 2-methoxy-N-(6-methoxybenzo[d]thiazol-2-yl)benzamide] | −− (−− indicates marginal or no inhibition detected with this assay)
19 | Cc1ccc(C(=O)Nc2nc3ccc(Cl)cc3s2)cc1 [Compound 70, N-(6-chlorobenzo[d]thiazol-2-yl)-4-methylbenzamide] | −− (−− indicates marginal or no inhibition detected with this assay)
20 | Cc1ccc(C(=O)Nc2nc3c(C)cccc3s2)cc1 [Compound 71, 4-methyl-N-(4-methylbenzo[d]thiazol-2-yl)benzamide] | −− (−− indicates marginal or no inhibition detected with this assay)
21 | CC(=O)Nc1ccc2nc(NC(=O)c3ccc(C)cc3)sc2c1 [Compound 72, N-(6-acetamidobenzo[d]thiazol-2-yl)-4-methylbenzamide] | −− (−− indicates marginal or no inhibition detected with this assay)
22 | Cc1ccc(C(=O)Nc2nc3ccc(S(N)(=O)=O)cc3s2)cc1 [Compound 73, N-[6-(aminosulfonyl)-1,3-benzothiazol-2-yl]-4-methylbenzamide] | −− (−− indicates marginal or no inhibition detected with this assay)
23 | COC(=O)c1ccc(C(=O)Nc2nc3ccc(N)cc3s2)cc1 [Compound 74, methyl 4-((6-aminobenzo[d]thiazol-2-yl)carbamoyl)benzoate] | −− (−− indicates marginal or no inhibition detected with this assay)
24 | Cc1ccc(C(=O)Nc2nc3ccc(OC(F)(F)F)cc3s2)cc1 [Compound 75, 4-methyl-N-(6-(trifluoromethoxy)benzo[d]thiazol-2-yl)benzamide] | −− (−− indicates marginal or no inhibition detected with this assay)
25 | Cc1ccc(C(=O)Nc2nc3c(C)cccc3s2)cc1C [Compound 76, 3,4-dimethyl-N-(4-methylbenzo[d]thiazol-2-yl)benzamide] | −− (−− indicates marginal or no inhibition detected with this assay)
26 | CCc1ccc(C(=O)Nc2nc3ccc(OC)cc3s2)cc1 [Compound 77, 4-ethyl-N-(6-methyoxybenzo[d]thiazol-2-yl)benzamide] | ++ (++ indicates inhibition at 50 μM or or less)
27 | CCc1ccc(C(=O)Nc2nc3ccc(C)cc3s2)cc1 [Compound 78, 4-ethyl-N-(6-methylbenzo[d]thiazol-2-yl)benzamide] | −− (−− indicates marginal or no inhibition detected with this assay)
28 | Cc1ccc(C(=O)Nc2nc3ccc([N+](=O)[O-])cc3s2)cc1C [Compound 79, 3,4-dimethyl-N-(6-nitrobenzo[d]thiazol-2-yl)benzamide] | ++ (++ indicates inhibition at 50 μM or or less)
29 | Cc1ccc2nc(NC(=O)c3ccc(C)c(C)c3)sc2c1 [Compound 80, 3,4-dimethyl-N-(6-methylbenzo[d]thiazol-2-yl)benzamide] | −− (−− indicates marginal or no inhibition detected with this assay)
